The values below come from patent US12673961B2 (Agios Pharmaceuticals, Inc., priority 2022, dated 2026).

The AC50 is the concentration at which the activity in the assay is half-maximal.

The target of the test is T1, human PAH with the R408W mutation (Homo sapiens, UniProt P00439, R408W).
T1 construct: expressed in transfected cells
T1 sequence (P00439 1-452 R408W): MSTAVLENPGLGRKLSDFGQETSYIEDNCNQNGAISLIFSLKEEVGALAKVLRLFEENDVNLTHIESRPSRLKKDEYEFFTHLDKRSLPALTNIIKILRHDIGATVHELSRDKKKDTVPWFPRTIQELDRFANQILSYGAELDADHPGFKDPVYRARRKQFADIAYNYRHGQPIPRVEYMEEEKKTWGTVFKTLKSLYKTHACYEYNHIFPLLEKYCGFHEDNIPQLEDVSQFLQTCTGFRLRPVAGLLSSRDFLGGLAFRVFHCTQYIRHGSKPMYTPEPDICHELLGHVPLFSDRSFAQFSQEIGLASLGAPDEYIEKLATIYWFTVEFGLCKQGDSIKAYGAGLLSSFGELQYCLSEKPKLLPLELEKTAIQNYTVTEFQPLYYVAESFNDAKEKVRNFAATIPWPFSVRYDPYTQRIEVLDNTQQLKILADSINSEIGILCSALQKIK
As to the kind of experiment: Cell Based Phenylalanine Flux Assay.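 Further: Ten-point dose curve from 2-fold serial dilutions, run in duplicate at 0.5% DMSO final, tracer step used 20 µM sepiapterin and 800 µM labeled phenylalanine.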 The following applies: A375 cells expressing human R408W PAH; 24 hrs with compound, then sepiapterin and 13C9,15N-Phenylalanine for 4 hours; 13C-Tyrosine by LC-MS; average where tested multiple times; read-out: AC50.
Method: Compounds were resuspended in DMSO, and 2-fold serial dilutions were performed to generate a 10-point dose curve. Compounds were added to plated cells in a total volume of 100 μl, and a final DMSO concentration of 0.5%. Each compound was tested in duplicate. Following compound addition, cells were placed in a 5% CO2, 37° C. tissue culture incubator for 24 hrs. […] 20 μM sepiapterin and 800 μM 13C9,15N-Phenylalanine were added. After 4 hours, cell media was removed. An aliquot of 10 μl of cell media was combined with 200 μl of extraction buffer (80% acetonitrile/20% H2O) for each well. Determination of ^13C-Tyrosine concentration was assessed by liquid chromatography mass spectrometry.
Where a compound was tested multiple times, the average value of the tests is reported.
As to `FC(F)c1cccn2nc([C@H]3c4nc[nH]c4CCN3c3nnc(C(F)(F)F)o3)cc12` [Example 1766, (R)-2-(4-(4-(difluoromethyl)pyrazolo[1,5-a]pyridin-2-yl)-6,7-dihydro-1H-imidazo [4,5-c]pyridin-5(4H)-yl)-5-(trifluoromethyl)-1,3,4-oxadiazole], the AC50 lay within 500 to 1000 nM. Take `CN(C)c1ccc2c(C(=O)N3CCc4[nH]cnc4[C@H]3c3cc4c(F)cccn4n3)cnn2c1` [Example 1772, (S)-(6-(dimethylamino)pyrazolo[1,5-a]pyridin-3-yl)(4-(4-fluoropyrazolo[1,5-a]pyridin-2-yl)-6,7-dihydro-1H-imidazo[4,5-c]pyridin-5(4H)-yl)methanone]: the AC50 was 500 to 1000 nM.

For `Fc1cccn2nc([C@@H]3c4nc[nH]c4CCN3c3ncc(C(F)(F)F)cn3)cc12` [Example 1778, (S)-4-(4-fluoropyrazolo [1,5-a]pyridin-2-yl)-5-(5-(trifluoromethyl)pyrimidin-2-yl)-4,5,6,7-tetrahydro-1H-imidazo[4,5-c]pyridine], the AC50 is < 500 nM. In the case of `Cc1cccc2cc([C@@H]3c4nc[nH]c4CCN3c3ncc(C(F)(F)F)cn3)nn12` [Example 1802, (S)-4-(7-methylpyrazolo [1,5-a]pyridin-2-yl)-5-(5-(trifluoromethyl)pyrimidin-2-yl)-4,5,6,7-tetrahydro-1H-imidazo[4,5-c]pyridine], the AC50 lay within 500 to 1000 nM. In the case of `Fc1cccn2nc([C@H]3c4nc[nH]c4CCN3c3nnc(C(F)(F)F)o3)cc12` [Example 1822, (R)-2-(4-(4-fluoropyrazolo [1,5-a]pyridin-2-yl)-6,7-dihydro-1H-imidazo [4,5-c]pyridin-5(4H)-yl)-5-(trifluoromethyl)-1,3,4-oxadiazole], the AC50 was > 5000 nM. With `Fc1cccn2nc([C@@H]3c4nc[nH]c4CCN3c3nnc(C(F)(F)F)o3)cc12` [Example 1823], the half-maximal activity concentration (AC50) was 500 to 1000 nM. `O=C(c1nnc(-c2cnccn2)o1)N1CCc2[nH]cnc2[C@H]1c1cc2c(C3CC3)cccn2n1` [Example 1857, (S)-(4-(4-cyclopropylpyrazolo [1,5-a]pyridin-2-yl)-1,4,6,7-tetrahydro-5H-imidazo[4,5-c]pyridin-5-yl)(5-(pyrazin-2-yl)-1,3,4-oxadiazol-2-yl)methanone]: the AC50 is 500 to 1000 nM. For `Fc1cccc(F)c1-c1nnc(N2CCc3[nH]cnc3[C@H]2c2cc3c(F)cccn3n2)o1` [Example 1865, (S)-2-(2,6-difluorophenyl)-5-(4-(4-fluoropyrazolo[1,5-a]pyridin-2-yl)-1,4,6,7-tetrahydro-5H-imidazo[4,5-c]pyridin-5-yl)-1,3,4-oxadiazole], the AC50 was < 500 nM.

In the case of `CC(C)(C)c1ncc(C(=O)N2CCc3[nH]cnc3[C@H]2c2cc3ccccn3n2)o1` [Example 1866, (S)-(2-(tert-butyl)oxazol-5-yl)(4-(pyrazolo[1,5-a]pyridin-2-yl)-1,4,6,7-tetrahydro-5H-imidazo[4,5-c]pyridin-5-yl)methanone], the AC50 is < 500 nM.

As to `Cn1ccc(-c2nnc(C(=O)N3CCc4[nH]cnc4[C@@H]3c3cc4c(Br)cccn4n3)o2)n1` [Example 1888, (R)-(4-(4-bromopyrazolo [1,5-a]pyridin-2-yl)-1,4,6,7-tetrahydro-5H-imidazo[4,5-c]pyridin-5-yl)(5-(1-methyl-1H-pyrazol-3-yl)-1,3,4-oxadiazol-2-yl)methanone], the AC50 is > 5000 nM.

For the molecule `CCc1cccn2nc([C@@H]3c4nc[nH]c4CCN3C(=O)c3nnc(-c4ccccn4)o3)cc12` [Example 1895, (S)-(4-(4-ethylpyrazolo[1,5-a]pyridin-2-yl)-1,4,6,7-tetrahydro-5H-imidazo[4,5-c]pyridin-5-yl)(5-(pyridin-2-yl)-1,3,4-oxadiazol-2-yl) methanone], the AC50 was < 500 nM. In the case of `O=C(c1nnc(-c2ccccn2)o1)N1CCc2[nH]cnc2[C@H]1c1cc2c(C3CC3)cccn2n1` [Example 1897, (S)-(4-(4-cyclopropylpyrazolo [1,5-a]pyridin-2-yl)-1,4,6,7-tetrahydro-5H-imidazo [4,5-c]pyridin-5-yl)(5-(pyridin-2-yl)-1,3,4-oxadiazol-2-yl)methanone], the AC50 fell in the range of 500 to 1000 nM.

In the case of `Cn1ccc(-c2nnc(C(=O)N3CCc4[nH]cnc4[C@@H]3c3cc4c(C5CC5)cccn4n3)o2)n1` [Example 1901], the AC50 is > 5000 nM. For the molecule `CC(C)c1cccn2nc([C@@H]3c4nc[nH]c4CCN3C(=O)c3nnc(-c4ncccc4F)o3)cc12` [Example 1906, (S)-(5-(3-fluoropyridin-2-yl)-1,3,4-oxadiazol-2-yl)(4-(4-isopropylpyrazolo[1,5-a]pyridin-2-yl)-1,4,6,7-tetrahydro-5H-imidazo[4,5-c]pyridin-5-yl)methanone], the AC50 is < 500 nM. Take `O=C(c1nnc(C2CC2)o1)N1CCc2[nH]cnc2[C@@H]1c1cc2c(Br)cccn2n1` [Example 1909, (R)-(4-(4-bromopyrazolo [1,5-a]pyridin-2-yl)-1,4,6,7-tetrahydro-5H-imidazo [4,5-c]pyridin-5-yl)(5-cyclopropyl-1,3,4-oxadiazol-2-yl)methanone]: the AC50 is 1000 to 5000 nM. Under `O=C(c1nnc(-c2ccccn2)o1)N1CCc2[nH]cnc2[C@@H]1c1cc2c(Br)cccn2n1` [Example 1910, (R)-(4-(4-bromopyrazolo [1,5-a]pyridin-2-yl)-1,4,6,7-tetrahydro-5H-imidazo[4,5-c]pyridin-5-yl)(5-(pyridin-2-yl)-1,3,4-oxadiazol-2-yl)methanone] stands > 5000 nM.

In the case of `Fc1ccc(-c2nnc(N3CCc4[nH]cnc4[C@@H]3c3cc4c(C(F)F)cccn4n3)o2)cc1` [Example 1912, (R)-2-(4-(4-(difluoromethyl)pyrazolo[1,5-a]pyridin-2-yl)-1,4,6,7-tetrahydro-5H-imidazo[4,5-c]pyridin-5-yl)-5-(4-fluorophenyl)-1,3,4-oxadiazole], the AC50 is > 5000 nM.

As to `Fc1ccc(-c2nnc(N3CCc4[nH]cnc4[C@H]3c3cc4c(C(F)F)cccn4n3)o2)cc1` [Example 1913, (S)-2-(4-(4-(difluoromethyl)pyrazolo[1,5-a]pyridin-2-yl)-1,4,6,7-tetrahydro-5H-imidazo [4,5-c]pyridin-5-yl)-5-(4-fluorophenyl)-1,3,4-oxadiazole], the AC50 is < 500 nM. Regarding `Cc1cccn2nc([C@@H]3c4nc[nH]c4CCN3C(=O)c3cnc(C(C)(C)C)o3)cc12` [Example 1920, (S)-(2-(tert-butyl)oxazol-5-yl)(4-(4-methylpyrazolo[1,5-a]pyridin-2-yl)-1,4,6,7-tetrahydro-5H-imidazo[4,5-c]pyridin-5-yl)methanone], the AC50 is < 500 nM.

Take `CCc1cccn2nc([C@H]3c4nc[nH]c4CCN3C(=O)c3nnc(C(C)(C)F)o3)cc12` [Example 1923, (R)-(4-(4-ethylpyrazolo [1,5-a]pyridin-2-yl)-1,4,6,7-tetrahydro-5H-imidazo [4,5-c]pyridin-5-yl)(5-(2-fluoropropan-2-yl)-1,3,4-oxadiazol-2-yl)methanone]: the AC50 is > 5000 nM. Next, `CCc1cccn2nc([C@@H]3c4nc[nH]c4CCN3C(=O)c3nnc(-c4cnn(C)c4)o3)cc12` [Example 1924, (S)-(4-(4-ethylpyrazolo [1,5-a]pyridin-2-yl)-1,4,6,7-tetrahydro-5H-imidazo[4,5-c]pyridin-5-yl)(5-(1-methyl-1H-pyrazol-4-yl)-1,3,4-oxadiazol-2-yl)methanone]: < 500 nM; `CCc1cccn2nc([C@@H]3c4nc[nH]c4CCN3C(=O)c3nnc(-c4ccn(C)n4)o3)cc12` [Example 1927, (S)-(4-(4-ethylpyrazolo [1,5-a]pyridin-2-yl)-1,4,6,7-tetrahydro-5H-imidazo[4,5-c]pyridin-5-yl)(5-(1-methyl-1H-pyrazol-3-yl)-1,3,4-oxadiazol-2-yl)methanone]: < 500 nM; `CC(C)c1cccn2nc([C@@H]3c4nc[nH]c4CCN3C(=O)c3nnc(-c4cnn(C(F)F)c4)o3)cc12` [Example 1936, (S)-(5-(1-(difluoromethyl)-1H-pyrazol-4-yl)-1,3,4-oxadiazol-2-yl)(4-(4-isopropylpyrazolo[1,5-a]pyridin-2-yl)-1,4,6,7-tetrahydro-5H-imidazo[4,5-c]pyridin-5-yl)methanone]: < 500 nM. For `CC(C)(F)c1nnc(C(=O)N2CCc3[nH]cnc3[C@H]2c2cc3c(Br)cccn3n2)o1` [Example 1938, (S)-(4-(4-bromopyrazolo [1,5-a]pyridin-2-yl)-1,4,6,7-tetrahydro-5H-imidazo [4,5-c]pyridin-5-yl)(5-(2-fluoropropan-2-yl)-1,3,4-oxadiazol-2-yl)methanone], the AC50 is < 500 nM. As for `CC(C)(F)c1nnc(C(=O)N2CCc3[nH]cnc3[C@@H]2c2cc3c(Br)cccn3n2)o1` [Example 1939, (R)-(4-(4-bromopyrazolo [1,5-a]pyridin-2-yl)-1,4,6,7-tetrahydro-5H-imidazo [4,5-c]pyridin-5-yl)(5-(2-fluoropropan-2-yl)-1,3,4-oxadiazol-2-yl)methanone], the AC50 was in the range of 1000 to 5000 nM.

In the case of `Cc1c(-c2nnc(C(=O)N3CCc4[nH]cnc4[C@H]3c3cc4c(C(C)C)cccn4n3)o2)cnn1C` [Example 1948, (S)-(5-(1,5-dimethyl-1H-pyrazol-4-yl)-1,3,4-oxadiazol-2-yl)(4-(4-isopropylpyrazolo [1,5-a]pyridin-2-yl)-1,4,6,7-tetrahydro-5H-imidazo[4,5-c]pyridin-5-yl)methanone], the AC50 was < 500 nM.
